Assay results from ChEMBL document CHEMBL1201862, “PubChem BioAssay data set” (2004).
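Values below derive from 48-hour exposures of cells grown in 96-well plates, with endpoints linearly interpolated between the two concentrations bracketing the appropriate inhibition level. GI50 is the concentration that inhibits growth by half.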 Activity calls are given as the source filed them. No stated cut-off is given here; in the data, active = GI50 up to about 1.1 µM and inactive = higher.

Legend:
Assay in all cases: NCI tumour cell line growth inhibition, 48 h
A549 = test system: A549
ACHN = test system: ACHN
EKVX = test system: EKVX
HCT-15 = test system: HCT-15
HT-29 = test system: HT-29
KM12 = test system: KM12
M14 = test system: M14
Malme-3M = test system: Malme-3M
NCI-H226 = test system: NCI-H226
NCI-H460 = test system: NCI-H460
NCI-H522 = test system: NCI-H522
RPMI-8226 = test system: RPMI-8226
SF-539 = test system: SF-539
SK-MEL-2 = test system: SK-MEL-2
SK-OV-3 = test system: SK-OV-3
SNB-75 = test system: SNB-75
U-251 = test system: U-251
UACC-257 = test system: UACC-257
DU-145 = test system: DU-145

| SMILES | GI50 (A549) | GI50 (ACHN) | GI50 (EKVX) | GI50 (HCT-15) | GI50 (HT-29) | GI50 (KM12) | GI50 (M14) | GI50 (Malme-3M) | GI50 (NCI-H226) | GI50 (NCI-H460) | GI50 (NCI-H522) | GI50 (RPMI-8226) | GI50 (SF-539) | GI50 (SK-MEL-2) | GI50 (SK-OV-3) | GI50 (SNB-75) | GI50 (U-251) | GI50 (UACC-257) | GI50 (DU-145) |
| --- | --- | --- | --- | --- | --- | --- | --- | --- | --- | --- | --- | --- | --- | --- | --- | --- | --- | --- | --- |
| Cc1ccc(NC(=O)C(=O)C(C#N)c2ccccc2C)cc1C (configuration not stated) | > 91.6 µM (inactive) | > 100 µM (inactive) | > 100 µM (inactive) | > 42.4 µM | > 100 µM (inactive) | > 100 µM (inactive) | > 100 µM (inactive) | > 100 µM (inactive) | > 100 µM (inactive) | > 48.5 µM (inactive) | > 92.5 µM (inactive) | > 57.8 µM (inactive) | > 100 µM (inactive) | > 100 µM (inactive) | > 100 µM (inactive) | > 69.3 µM (inactive) | > 77.3 µM (inactive) | > 100 µM (inactive) | – |
| O=C1C[C@H](c2ccc(O)c(O)c2)Oc2cc(O)cc(O)c21 | > 100 µM (inactive) | 65.8 µM (inactive) | 83.8 µM (inactive) | > 100 µM | > 100 µM (inactive) | 78.2 µM (inactive) | > 100 µM (inactive) | 87.1 µM (inactive) | > 100 µM (inactive) | 72.4 µM (inactive) | 11.6 µM (inactive) | > 100 µM (inactive) | > 100 µM (inactive) | > 100 µM (inactive) | > 100 µM (inactive) | 83.9 µM (inactive) | 82.4 µM (inactive) | > 100 µM (inactive) | – |
| Cc1cc(NCC2CC/C(=C\C=C\c3ccccc3)C2=O)no1 (configuration not stated) | > 100 µM (inactive) | 93.8 µM (inactive) | > 100 µM (inactive) | 67.3 µM | > 100 µM (inactive) | 41.8 µM (inactive) | > 100 µM (inactive) | > 100 µM (inactive) | 49.8 µM (inactive) | > 100 µM (inactive) | > 100 µM (inactive) | 19.5 µM (inactive) | > 100 µM (inactive) | – | > 100 µM (inactive) | – | 40.2 µM (inactive) | 57.8 µM (inactive) | > 100 µM (inactive) |
| COc1ccc2c(c1)c1c(n2CCN2CCCCC2)-c2ccccc2CC1 | 16.4 µM (inactive) | 17.2 µM (inactive) | 17.9 µM (inactive) | 11.5 µM | 4.48 µM (inactive) | 14 µM (inactive) | 14.7 µM (inactive) | 14.6 µM (inactive) | 5.2 µM (inactive) | 14.5 µM (inactive) | 8.97 µM (inactive) | 14.7 µM (inactive) | 13.6 µM (inactive) | 15.2 µM (inactive) | 19.7 µM (inactive) | 14.6 µM (inactive) | 14.4 µM (inactive) | 17.9 µM (inactive) | 32.1 µM (inactive) |
| BrC(/C=N/Nc1nnc(-c2ccccc2)c(-c2ccccc2)n1)C(Br)c1ccccc1 (configuration not stated) | 29.3 µM (inactive) | 31 µM (inactive) | 29.9 µM (inactive) | 28.7 µM | 34 µM (inactive) | 32.9 µM (inactive) | 21.6 µM (inactive) | 28.5 µM (inactive) | 20.4 µM (inactive) | 35.2 µM (inactive) | 14.5 µM (inactive) | 14.4 µM (inactive) | 28.4 µM (inactive) | 19.9 µM (inactive) | 82.4 µM (inactive) | 22.2 µM (inactive) | 28.2 µM (inactive) | 14.1 µM (inactive) | – |
| CN(C)c1nc(N(C)C)sc(=O)n1 | > 100 µM (inactive) | > 100 µM (inactive) | > 100 µM (inactive) | > 100 µM | > 100 µM (inactive) | > 100 µM (inactive) | > 100 µM (inactive) | – | > 100 µM (inactive) | > 100 µM (inactive) | > 100 µM (inactive) | > 100 µM (inactive) | > 100 µM (inactive) | > 100 µM (inactive) | > 100 µM (inactive) | > 100 µM (inactive) | > 100 µM (inactive) | > 100 µM (inactive) | – |
| CC(=O)C1=C(C)NC2C=CC=CN12 (configuration not stated) | > 100 µM (inactive) | > 100 µM (inactive) | > 100 µM (inactive) | > 100 µM | > 100 µM (inactive) | > 100 µM (inactive) | > 100 µM (inactive) | > 100 µM (inactive) | > 100 µM (inactive) | > 100 µM (inactive) | > 100 µM (inactive) | > 100 µM (inactive) | > 100 µM (inactive) | > 100 µM (inactive) | > 100 µM (inactive) | > 100 µM (inactive) | > 100 µM (inactive) | > 100 µM (inactive) | – |
| Cc1c(/C=N/NC(=S)Nc2cccc(Cl)c2)c(=O)n(-c2ccccc2)n1C | – | 14.7 µM (inactive) | 6.65 µM (inactive) | 3.91 µM | 27.9 µM (inactive) | 18.7 µM (inactive) | 16.6 µM (inactive) | – | 13.8 µM (inactive) | 9.4 µM (inactive) | – | 40.9 µM (inactive) | 17.1 µM (inactive) | 18.6 µM (inactive) | 18.2 µM (inactive) | 15 µM (inactive) | 20.7 µM (inactive) | 32.4 µM (inactive) | 24.1 µM (inactive) |
| O=C1c2ccccc2C(=O)N1C/C=N/NS(=O)(=O)c1ccc2ccccc2c1 | > 100 µM (inactive) | > 100 µM (inactive) | > 100 µM (inactive) | > 100 µM | > 100 µM (inactive) | > 100 µM (inactive) | > 100 µM (inactive) | > 100 µM (inactive) | > 100 µM (inactive) | > 100 µM (inactive) | > 100 µM (inactive) | > 100 µM (inactive) | > 100 µM (inactive) | > 100 µM (inactive) | > 100 µM (inactive) | > 100 µM (inactive) | > 100 µM (inactive) | > 100 µM (inactive) | – |
| CC(=O)Oc1ccc(O)c2c1CCCC2 | > 100 µM (inactive) | 15.2 µM (inactive) | 64.9 µM (inactive) | 13.4 µM | 35.7 µM (inactive) | > 100 µM (inactive) | 24.2 µM (inactive) | > 40.5 µM (inactive) | > 100 µM (inactive) | > 31.6 µM (inactive) | 13.6 µM (inactive) | 23.3 µM (inactive) | > 100 µM (inactive) | > 100 µM (inactive) | 46.7 µM (inactive) | > 100 µM (inactive) | > 78.3 µM (inactive) | 39.9 µM (inactive) | – |
| O=S1(=O)N=C(NCc2c[nH]c3ccccc23)N(c2ccccc2)c2ccncc21 | > 100 µM (inactive) | > 100 µM (inactive) | 64.9 µM (inactive) | > 100 µM | > 100 µM (inactive) | > 100 µM (inactive) | > 100 µM (inactive) | > 100 µM (inactive) | 60.3 µM (inactive) | > 100 µM (inactive) | 25.1 µM (inactive) | – | 66.4 µM (inactive) | > 100 µM (inactive) | 40.2 µM (inactive) | 16.8 µM (inactive) | 49.4 µM (inactive) | > 100 µM (inactive) | > 100 µM (inactive) |
| COc1cc2c(cc1OC)C(C(CBr)CBr)N(C1CCCC1)CC2 (configuration not stated) | > 100 µM (inactive) | > 100 µM (inactive) | > 100 µM (inactive) | > 100 µM | > 100 µM (inactive) | > 100 µM (inactive) | > 100 µM (inactive) | > 100 µM (inactive) | 82.6 µM (inactive) | > 100 µM (inactive) | > 100 µM (inactive) | > 100 µM (inactive) | > 100 µM (inactive) | > 100 µM (inactive) | > 100 µM (inactive) | > 100 µM (inactive) | > 100 µM (inactive) | > 100 µM (inactive) | – |
| CCOC(=O)C1C=C1C(C)(C)O (configuration not stated) | > 10 µM (inactive) | > 10 µM (inactive) | > 10 µM (inactive) | > 10 µM | > 10 µM (inactive) | > 10 µM (inactive) | > 10 µM (inactive) | > 10 µM (inactive) | > 10 µM (inactive) | > 10 µM (inactive) | – | > 10 µM (inactive) | > 10 µM (inactive) | > 10 µM (inactive) | > 10 µM (inactive) | > 10 µM (inactive) | > 10 µM (inactive) | > 10 µM (inactive) | > 10 µM (inactive) |
| C[N+](C)(C)CC1CCCCC1O (configuration not stated) | – | > 100 µM (inactive) | – | > 100 µM | > 100 µM (inactive) | – | > 100 µM (inactive) | – | > 100 µM (inactive) | > 100 µM (inactive) | 63 µM (inactive) | > 100 µM (inactive) | > 100 µM (inactive) | > 100 µM (inactive) | > 100 µM (inactive) | > 100 µM (inactive) | > 100 µM (inactive) | > 100 µM (inactive) | – |
| C/C(=N\Nc1nc2ccccc2o1)c1ccncn1 | 0.24 µM (active) | 0.0638 µM (active) | 0.0526 µM (active) | 0.0476 µM | 0.0356 µM (active) | 0.163 µM (active) | 0.126 µM (active) | 0.124 µM (active) | 0.228 µM (active) | 0.0964 µM (active) | 0.0419 µM (active) | 0.109 µM (active) | 0.258 µM (active) | 0.277 µM (active) | 0.294 µM (active) | 0.457 µM (active) | 0.162 µM (active) | 0.396 µM (active) | 1.26 µM (inactive) |
| COC1=CC(C2c3cc4c(cc3[C@@H](Nc3ccc([N+](=O)[O-])cc3)C3COC(=O)[C@H]23)OCO4)=CC(=O)C1=O (some centres not stated) | 0.923 µM (active) | 0.912 µM (active) | 7.57 µM (inactive) | 3.27 µM | 7.21 µM (inactive) | 4.53 µM (inactive) | 3.29 µM (inactive) | 4.46 µM (inactive) | 1.64 µM (inactive) | 0.277 µM (active) | 2.58 µM (inactive) | 2.43 µM (inactive) | 1.82 µM (inactive) | 17 µM (inactive) | 2.48 µM (inactive) | 1.54 µM (inactive) | 1.35 µM (inactive) | 16.1 µM (inactive) | – |
